Reference: patent US20240246968A1, “SMALL MOLECULE INHIBITORS OF KRAS G12C MUTANT” (Merck Sharp & Dohme LLC, priority 2021, published 2024)

Columns and labels:
[1] = biological target: Gppcp-bound recombinant K-Ras4B G12C mutant protein (amino acids 1-169, C51S/C80L/C118S) (Homo sapiens, UniProt P01116, C118S/C51S/C80L/G12C); experiment: KRASG12C binding assay (LC-MS, compound binding rate); conditions: test compound final concentration 0.5 μM, 25° C., 1 hour
Summary of the method: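 Gppcp-bound K-Ras4B G12C (1-169; C51S/C80L/C118S), 50 nM in TBS with 0.1 mM TCEP, 0.25 mM MgCl2, 50 μM Gppcp, exposed to compound at 0.5 μM final for 1 h at 25 °C. Quenched with formic acid and analysed by intact-protein ESI LC-MS. Binding rate is the mono-adduct signal over total KRAS signal; graded A (≥80%) to E (<20%).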

[2] = system: MIA PaCa-2 cells; experiment: Growth inhibition activity on KRAS-G12C mutant cell line (MIA PaCa-2), CellTiter-Glo 3D; assay type: cell-based, human; conditions: MIA PaCa-2, 3-day culture with compound
Summary of the method: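 Cells in RPMI1640 with 10% FBS were seeded in U-bottom plates and cultured 1 day at 37 °C, 5% CO2, then exposed to compound (0.2% DMSO final) for 3 more days. Viability read by CellTiter-Glo 3D luminescence; IC50 from growth inhibition relative to untreated wells.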

[3] = biological target: T1, interaction between recombinant K-Ras4B G12C mutant protein and cRAF RAS-binding domain (cRAF-RBD) (Homo sapiens, UniProt P01116, G12C); experiment: Inhibitory activity on interaction between KRAS G12C and cRAF (Alpha technology); assay type: biochemical; conditions: GMPPNP-bound KRAS G12C incubated with compound at 25° C. for 1 hour, then cRAF-RBD; Alpha signal
T1 construct: made in house; host or cells: E. coli
Summary of the method: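 GMPPNP-loaded His-tagged KRAS G12C (aa 1-169, E. coli) preincubated with compound 1 h at 25° C in Tris pH 7.5, 100 mM NaCl, 1 mM MgCl2, TCEP, 0.1% Tween 20; cRAF-RBD (aa 50-132) added, 1.5 h RT, Alpha signal read. DMSO = 0%, GDP-bound KRAS = 100% inhibition; IC50 from dose titration fit.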

Row | SMILES | binding rate [1] | IC50 ([2]; Homo sapiens, MIA PaCa-2, 72 h) | IC50 [3] | IC50 [2]
1 | CO[C@H]1CC[C@H](NC/C=C/C(=O)Nc2c(F)cc(C(=O)c3cnc4c(-c5cc6nc7n(c6cc5C(F)(F)F)CCC7)cccn34)cc2F)CC1 [Example 6, (E)-N-(2,6-difluoro-4-(8-(7-(trifluoromethyl)-2,3-dihydro-1H-benzo[d]pyrrolo[1,2-a]imidazol-6-yl)imidazo[1,2-a]pyridine-3-carbonyl)phenyl)-4-(((1r,4r)-4-methoxycyclohexyl)amino)but-2-enamide] | B (a binding rate of 60% or more and less than 80% is rated “B”) | 94 nM | 70 nM | –
2 | C=Cc1cc(C(=O)c2cc(F)c(NC(=O)/C=C/CNC3(C)CC3)c(F)c2)n2cccc(-c3c(OC)cc4c(nc(C)n4C)c3F)c12 (single isomer, unassigned) [Example 111-2, (E)-N-(2,6-difluoro-4-(8-(4-fluoro-6-methoxy-1,2-dimethyl-1H-benzo[d]imidazol-5-yl)-1-vinylindolizine-3-carbonyl)phenyl)-44-((1-methylcyclopropyl)amino)but-2-enamide] | A (A binding rate of 80% or more is rated “A”) | – | 17.4 nM | 191 nM
3 | Cc1nc2c(Cl)c(-c3cccn4c(C(=O)c5cc(F)c(NC(=O)/C=C/CNC6CCOCC6)c(F)c5)ccc34)c(C(F)(F)F)cc2n1C (single isomer, unassigned) [Example 57-2, (E)-N-(4-(8-(4-chloro-1,2-dimethyl-6-(trifluoromethyl)-1H-benzo[d]imidazol-5-yl)indolizine-3-carbonyl)-2,6-difluorophenyl)-4-((tetrahydro-2H-pyran-4-yl)amino)but-2-enamide] | A (A binding rate of 80% or more is rated “A”) | – | 790 nM | 1100 nM
4 | C#Cc1cc2c(nc(C)n2C)c(Cl)c1-c1cccn2c(C(=O)c3cc(F)c(NC(=O)/C=C/CN[C@H]4CC[C@H](OC)CC4)c(F)c3)ccc12 [Example 43, (E)-N-(4-(8-(4-chloro-6-ethynyl-1,2-dimethyl-1H-benzo[d]imidazol-5-yl)indolizine-3-carbonyl)-2,6-difluorophenyl)-4-(((1r,4r)-4-methoxycyclohexyl)amino)but-2-enamide] | A (A binding rate of 80% or more is rated “A”) | 160 nM | 88 nM | –
5 | CCc1nc2c(-c3c(C(F)(F)F)cc4c(nc(C)n4C)c3OC)cccn2c1C(=O)c1cc(F)c(NC(=O)/C=C/CN[C@H]2CC[C@H](OC)CC2)c(F)c1 (single isomer, unassigned) [Example 102-2, (E)-N-(4-(2-ethyl-8-(4-methoxy-1,2-dimethyl-6-(trifluoromethyl)-1H-benzo[d]imidazol-5-yl)imidazo[1,2-a]pyridine-3-carbonyl)-2,6-difluorophenyl)-4-(((1r,4r)-4-methoxycyclohexyl)amino)but-2-enamide] | C (a binding rate of 40% or more and less than 60% is rated “C”) | – | 2440 nM | 1460 nM
6 | CO[C@H]1CC[C@H](NC/C=C/C(=O)Nc2c(F)cc(C(=O)c3cc(C(=O)N(C)C)c4c(-c5c(C)cc6c(nc(C)n6C)c5Cl)cccn34)cc2F)CC1 [Example 106, 8-(4-chloro-1,2,6-trimethyl-1H-benzo[d]imidazol-5-yl)-3-(3,5-difluoro-4-((E)-4-(((1r,4r)-4-methoxycyclohexyl)amino)but-2-enamido)benzol)-N,N-dimethylindolizine-1-carboxamide] | A (A binding rate of 80% or more is rated “A”) | 134 nM | 31.1 nM | –
7 | Cc1nc2cc(-c3cccn4c(C(=O)c5cc(F)c(NC(=O)/C=C/CN[C@@H]6CCC[C@@H](F)C6)c(F)c5)ccc34)c(C(F)(F)F)cc2n1C (racemic) [Example 90, (E)-N-(4-(8-(1,2-dimethyl-6-(trifluoromethyl)-1H-benzo[d]imidazol-5-yl)indolizine-3-carbonyl-2,6-difluorophenyl)-4-(((1R,3R)-3-fluorocyclohexyl)amino)but-2-enamide and (E)-N-(4-(8-(1,2-dimethyl-6-(trifluoromethyl)-1H-benzo[d]imidazol-5-yl)indolizine-3-carbonyl)-2,6-difluorophenyl)-4-(((1S,3S)-3-fluorocyclohexyl)amino)but-2-enamide] | A (A binding rate of 80% or more is rated “A”) | 200 nM | 97 nM | –
8 | CO[C@H]1CC[C@H](NC/C=C/C(=O)Nc2c(F)cc(C(=O)c3ccc4c(-c5c(Cl)cc6c(ncn6C)c5Cl)cccn34)cc2F)CC1 (single isomer, unassigned) [Example 15-1, (E)-N-(4-(8-(4,6-dichloro-1-methyl-1H-benzo[d]imidazol-5-yl)indolizine-3-carbonyl)-2,6-difluorophenyl)-4-(((1r,4r)-4-methoxycyclohexyl)amino)but-2-enamide] | A (A binding rate of 80% or more is rated “A”) | – | 42 nM | 46 nM
9 | Cn1cnc2c(Cl)c(-c3cccn4c(C(=O)c5cc(F)c(NC(=O)/C=C/CNC(C)(C)C)c(F)c5)ccc34)c(Cl)cc21 (single isomer, unassigned) [Example 20-1, (E)-4-(tert-butylamino)-N-(4-(8-(4,6-dichloro-1-methyl-1H-benzo[d]imidazol-5-yl)indolizine-3-carbonyl)-2,6-difluorophenyl)but-2-enamide] | A (A binding rate of 80% or more is rated “A”) | – | 200 nM | 200 nM
10 | CO[C@H]1CC[C@H](NC/C=C/C(=O)Nc2c(F)cc(C(=O)c3ccc4c(-c5c(C)cc6c(nc(COC(=O)/C=C/CN[C@H]7CC[C@H](OC)CC7)n6C)c5Cl)cccn34)cc2F)CC1 [Example 59, (4-chloro-5-(3-(3,5-difluoro-4-((E)-4-(((1r,4r)-4-methoxycyclohexyl)amino)but-2-enamido)benzoyl)indolizin-8-yl)-1,6-dimethyl-1H-benzo[d]imidazol-2-yl)methyl (E)-4-(((1r,4r)-4-methoxycyclohexyl)amino)but-2-enoate] | A (A binding rate of 80% or more is rated “A”) | 230 nM | 34 nM | –
11 | COc1cc(N2CCCC2=O)cc(Cl)c1-c1cccn2c(C(=O)c3cc(F)c(NC(=O)/C=C/CNC(C)(C)C)c(F)c3)ccc12 [Example 21, (E)-4-(tert-butylamino)-N-(4-(8-(2-chloro-6-methoxy-4-(2-oxopyrrolidin-1-yl)phenyl)indolizine-3-carbonyl)-2,6-difluorophenyl)but-2-enamide] | A (A binding rate of 80% or more is rated “A”) | 180 nM | 97 nM | –
12 | COc1c(-c2cccn3c(C(=O)c4cc(F)c(NC(=O)/C=C/CNC(C)(C)C)c(F)c4)ccc23)c(C(F)(F)F)cc2c1nc(C)n2C [Example 53, (E)-4-(tert-butylamino)-N-(2,6-difluoro-4-(8-(4-methoxy-1,2-dimethyl-6-(trifluoromethyl)-1H-benzo[d]imidazol-5-yl)indolizine-3-carbonyl)phenyl)but-2-enamide] | A (A binding rate of 80% or more is rated “A”) | 22 nM | 40 nM | –
